According to patent US7396837B2, “Antitumoral analogs of lamellarins” (Pharma Mar, S.A.U., priority 2002, dated 2008):
Like-named read-outs stand apart in the source and are kept apart here.

Legend:
Assay type in all cases: cell-based
[1] = system: IGROV; assay: SRB colorimetric cell growth inhibition assay, IGROV; conditions: Homo sapiens, IGROV; for GI50: GI=growth inhibition, read-out: GI50 IGROV; for CC50: cell killing (cytotoxic effect); for IC (TGI): total growth inhibition (cytostatic effect), read-out: TGI IGROV
Procedure, shortened: (§1)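 Human tumour cells were exposed continuously to the test sample, and growth and viability were quantified by sulforhodamine B staining. Means ± SD came from triplicate wells, and GI, TGI (cytostatic) and LC (cell killing) parameters were derived.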

[2] = system: K-562; assay: SRB colorimetric cell growth inhibition assay, K-562; conditions: Homo sapiens; for GI50: GI=growth inhibition, read-out: GI50 K-562; for CC50: cell killing (cytotoxic effect); for IC (TGI): total growth inhibition (cytostatic effect), read-out: TGI K-562
Procedure, shortened: as §1

[3] = system: HeLa-APL; assay: SRB colorimetric cell growth inhibition assay, HeLa-APL (aplidine resistant); conditions: Homo sapiens; for GI50: read-out: GI50 HELA-APL; for CC50: cell killing (cytotoxic effect); for IC (TGI): read-out: TGI HELA-APL
Procedure, shortened: as §1

[4] = system: HT-29; assay: SRB colorimetric cell growth inhibition assay, HT-29; conditions: Homo sapiens; for GI50: GI=growth inhibition, read-out: GI50 HT-29; for CC50: cell killing (cytotoxic effect); for IC (TGI): total growth inhibition (cytostatic effect), read-out: TGI HT-29
Procedure, shortened: as §1

[5] = system: SK-BR-3; assay: SRB colorimetric cell growth inhibition assay, SK-BR-3; conditions: Homo sapiens; for GI50: GI=growth inhibition, read-out: GI50 SK-BR-3; for CC50: cell killing (cytotoxic effect); for IC (TGI): total growth inhibition (cytostatic effect), read-out: TGI SK-BR-3
Procedure, shortened: as §1

[6] = system: LoVo-Dox; assay: SRB colorimetric cell growth inhibition assay, LoVo-Dox (MDR); conditions: Homo sapiens; for GI50: GI=growth inhibition, read-out: GI50 LOVO-DOX; for CC50: cell killing (cytotoxic effect); for IC (TGI): total growth inhibition (cytostatic effect), read-out: TGI LOVO-DOX
Procedure, shortened: as §1

[7] = system: HeLa; assay: SRB colorimetric cell growth inhibition assay, HeLa; conditions: Homo sapiens, HeLa; for GI50: GI=growth inhibition, read-out: GI50 HELA; for CC50: cell killing (cytotoxic effect); for IC (TGI): read-out: TGI HELA
Procedure, shortened: as §1

[8] = system: A-549; assay: SRB colorimetric cell growth inhibition assay, A-549; conditions: Homo sapiens; for GI50: GI=growth inhibition, read-out: GI50 A-549; for CC50: cell killing (cytotoxic effect); for IC (TGI): total growth inhibition (cytostatic effect), read-out: TGI A-549
Procedure, shortened: as §1

[9] = system: LNCaP; assay: SRB colorimetric cell growth inhibition assay, LNCaP; conditions: Homo sapiens, LNCaP; for GI50: GI=growth inhibition, read-out: GI50 LN-caP; for CC50: cell killing (cytotoxic effect); for IC (TGI): total growth inhibition (cytostatic effect), read-out: TGI LN-caP
Procedure, shortened: as §1

[10] = system: SK-MEL-28; assay: SRB colorimetric cell growth inhibition assay, SK-MEL-28; conditions: Homo sapiens; for GI50: GI=growth inhibition, read-out: GI50 MEL-28; for CC50: cell killing (cytotoxic effect); for IC (TGI): total growth inhibition (cytostatic effect), read-out: TGI MEL-28
Procedure, shortened: as §1

[11] = system: LoVo; assay: SRB colorimetric cell growth inhibition assay, LoVo; conditions: Homo sapiens, LoVo; for GI50: GI=growth inhibition, read-out: GI50 LOVO; for CC50: cell killing (cytotoxic effect); for IC (TGI): total growth inhibition (cytostatic effect), read-out: TGI LOVO
Procedure, shortened: as §1

[12] = system: DU-145; assay: SRB colorimetric cell growth inhibition assay, DU-145; conditions: Homo sapiens; for GI50: GI=growth inhibition, read-out: GI50 DU-145; for CC50: cell killing (cytotoxic effect); for IC (TGI): total growth inhibition (cytostatic effect), read-out: TGI DU-145
Procedure, shortened: as §1

[13] = system: PANC-1; assay: SRB colorimetric cell growth inhibition assay, PANC-1; conditions: Homo sapiens; for GI50: GI=growth inhibition, read-out: GI50 PANC-1; for CC50: cell killing (cytotoxic effect); for IC (TGI): total growth inhibition (cytostatic effect), read-out: TGI PANC-1
Procedure, shortened: as §1

[14] = system: IGROV-ET; assay: SRB colorimetric cell growth inhibition assay, IGROV-ET (ET-743 resistant); conditions: Homo sapiens; for GI50: GI=growth inhibition, read-out: GI50 IGROV-ET; for CC50: cell killing (cytotoxic effect); for IC (TGI): total growth inhibition (cytostatic effect), read-out: TGI IGROV-ET
Procedure, shortened: as §1

[15] = K562, K-562, read-out: LC50 K-562
[16] = HELA-APL, read-out: LC50 HELA-APL
[17] = HELA-APL, total growth inhibition (cytostatic effect)
[18] = HT-29, HT-29, read-out: LC50 HT-29
[19] = SK-BR-3, SK-BR-3, read-out: LC50 SK-BR-3
[20] = LOVO-DOX, read-out: LC50 LOVO-DOX
[21] = total growth inhibition (cytostatic effect)
[22] = A549, A-549, read-out: LC50 A-549
[23] = SK-MEL-28, MEL-28, read-out: LC50 MEL-28
[24] = DU-145, DU-145, read-out: LC50 DU-145
[25] = PANC-1, PANC-1, read-out: LC50 PANC-1
[26] = IGROV-ET, read-out: LC50 IGROV-ET

## COc1cc(-c2c3c4cc(OC)c(OC(=O)[C@@H]5CCCN5)cc4oc(=O)c3n3ccc4cc(OC(=O)[C@@H]5CCCN5)c(OC)cc4c23)ccc1OC(=O)[C@@H]1CCCN1 [Compound 180]
[1]
  GI50: 53 nM
  IC (TGI): 319 nM
[1]; read-out: LC50 IGROV
  CC50: 11100 nM
[2]; K562, K-562
  GI50: 40 nM
  IC (TGI): 1530 nM
[2]; [15]
  CC50: 11100 nM
[3]; HELA-APL, GI=growth inhibition
  GI50: 130 nM
[3]; [16]
  CC50: 11100 nM
[3]; [17]
  IC (TGI): 1210 nM
[4]; HT-29, HT-29
  GI50: 11100 nM
  IC (TGI): 11100 nM
[4]; [18]
  CC50: 11100 nM
[5]; SK-BR-3, SK-BR-3
  GI50: 18.1 nM
  IC (TGI): 54.1 nM
[5]; [19]
  CC50: 1190 nM
[6]; LOVO-DOX
  GI50: 104 nM
  IC (TGI): 498 nM
[6]; [20]
  CC50: 11100 nM
[7]
  GI50: 80.6 nM
[7]; read-out: LC50 HELA
  CC50: 11100 nM
[7]; [21]
  IC (TGI): 1990 nM
[8]; A549, A-549
  GI50: 20.1 nM
  IC (TGI): 233 nM
[8]; [22]
  CC50: 7260 nM
[9]; LN-caP
  GI50: 53 nM
  IC (TGI): 227 nM
[9]; LN-caP, read-out: LC50 LN-caP
  CC50: 615 nM
[10]; SK-MEL-28, MEL-28
  GI50: 13.4 nM
  IC (TGI): 126 nM
[10]; [23]
  CC50: 11100 nM
[11]
  GI50: 535 nM
  IC (TGI): 2010 nM
[11]; read-out: LC50 LOVO
  CC50: 8510 nM
[12]; DU-145, DU-145
  GI50: 35.9 nM
  IC (TGI): 84.2 nM
[12]; [24]
  CC50: 11100 nM
[13]; PANC-1, PANC-1
  GI50: 130 nM
  IC (TGI): 11.1 nM
[13]; [25]
  CC50: 11100 nM
[14]; IGROV-ET
  GI50: 69.1 nM
  IC (TGI): 531 nM
[14]; [26]
  CC50: 11100 nM

## COc1cc(-c2c3c4cc(OC)c(OC(=O)[C@@H](N)CO)cc4oc(=O)c3n3ccc4c(OC(=O)[C@@H](N)CO)c(OC)c(OC)cc4c23)ccc1OC(=O)[C@@H](N)CO [Compound 9]
[1]; read-out: LC50 IGROV, IGROV
  CC50: 3000 nM
[1]
  GI50: 182 nM
  IC (TGI): 909 nM
[2]; K562, K-562
  GI50: 47.3 nM
  IC (TGI): 311 nM
[2]; K562, read-out: LC50 K-562, K-562
  CC50: 4180 nM
[3]
  GI50: 282 nM
  IC (TGI): 1230 nM
[3]; read-out: LC50 HELA-APL, HELA-APL
  CC50: 3830 nM
[4]; HT-29, HT-29
  GI50: 1610 nM
  IC (TGI): 3280 nM
[4]; HT-29, read-out: LC50 HT-29, HT-29
  CC50: 6660 nM
[5]; SK-BR-3, SK-BR-3
  GI50: 174 nM
  IC (TGI): 374 nM
[5]; SK-BR-3, read-out: LC50 SK-BR-3, SK-BR-3
  CC50: 806 nM
[6]; LOVO-DOX
  GI50: 388 nM
  IC (TGI): 1140 nM
[6]; read-out: LC50 LOVO-DOX, LOVO-DOX
  CC50: 3630 nM
[7]; read-out: LC50 HELA, HELA
  CC50: 4060 nM
[7]
  IC (TGI): 459 nM
  GI50: 107 nM
[8]; A549, A-549
  GI50: 323 nM
  IC (TGI): 1150 nM
[8]; A549, read-out: LC50 A-549, A-549
  CC50: 6760 nM
[9]; LN-caP
  GI50: 174 nM
  IC (TGI): 422 nM
[9]; read-out: LC50 LN-caP, LN-caP
  CC50: 1380 nM
[10]; SK-MEL-28, MEL-28
  GI50: 134 nM
  IC (TGI): 516 nM
[10]; SK-MEL-28, read-out: LC50 MEL-28, MEL-28
  CC50: 2110 nM
[11]; read-out: LC50 LOVO, LOVO
  CC50: 2300 nM
[11]
  GI50: 243 nM
  IC (TGI): 584 nM
[12]; DU-145, DU-145
  GI50: 54.3 nM
  IC (TGI): 169 nM
[12]; DU-145, read-out: LC50 DU-145, DU-145
  CC50: 615 nM
[13]; PANC-1, PANC-1
  GI50: 200 nM
  IC (TGI): 1560 nM
[13]; PANC-1, read-out: LC50 PANC-1, PANC-1
  CC50: 4910 nM
[14]; IGROV-ET
  GI50: 132 nM
  IC (TGI): 980 nM
[14]; read-out: LC50 IGROV-ET, IGROV-ET
  CC50: 493 nM

## COc1cc(-c2c3c4cc(OC)c(OC(=O)CCCCCN)cc4oc(=O)c3n3ccc4c(OC(=O)CCCCCN)c(OC)c(OC)cc4c23)ccc1OC(=O)CCCCCN [Compound 193]
[1]
  GI50: 74.1 nM
  IC (TGI): 410 nM
[1]; read-out: LC50 IGROV
  CC50: 3480 nM
[2]; K562, K-562
  GI50: 123 nM
  IC (TGI): 399 nM
[2]; [15]
  CC50: 3910 nM
[3]; HELA-APL, GI=growth inhibition
  GI50: 797 nM
[3]; [16]
  CC50: 10200 nM
[3]; [17]
  IC (TGI): 10200 nM
[4]; HT-29, HT-29
  GI50: 10200 nM
  IC (TGI): 10200 nM
[4]; [18]
  CC50: 10200 nM
[5]; SK-BR-3, SK-BR-3
  GI50: 227 nM
  IC (TGI): 567 nM
[5]; [19]
  CC50: 10200 nM
[6]; LOVO-DOX
  GI50: 313 nM
  IC (TGI): 10200 nM
[6]; [20]
  CC50: 10200 nM
[7]
  GI50: 350 nM
[7]; read-out: LC50 HELA
  CC50: 10200 nM
[7]; [21]
  IC (TGI): 10200 nM
[8]; A549, A-549
  GI50: 607 nM
  IC (TGI): 10200 nM
[8]; [22]
  CC50: 10200 nM
[9]; LN-caP
  GI50: 118 nM
  IC (TGI): 491 nM
[9]; LN-caP, read-out: LC50 LN-caP
  CC50: 5490 nM
[10]; SK-MEL-28, MEL-28
  GI50: 101 nM
  IC (TGI): 497 nM
[10]; [23]
  CC50: 10200 nM
[11]
  GI50: 350 nM
  IC (TGI): 847 nM
[11]; read-out: LC50 LOVO
  CC50: 10200 nM
[12]; DU-145, DU-145
  GI50: 33.3 nM
  IC (TGI): 128 nM
[12]; [24]
  CC50: 438 nM
[13]; PANC-1, PANC-1
  GI50: 278 nM
  IC (TGI): 3600 nM
[13]; [25]
  CC50: 10200 nM
[14]; IGROV-ET
  GI50: 136 nM
  IC (TGI): 432 nM
[14]; [26]
  CC50: 9590 nM
